Test results from patent US9487511B2, “Cyclopropanamine compound and use thereof” (Takeda Pharmaceutical Company Limited, priority 2014, dated 2016).
Counter-ions that a name gives are not always drawn. Like-named read-outs stand apart in the source and are kept apart here.

What was measured:
[1] = Evaluation of blood cell number in mouse; assay type: in vivo; details: male ICR mice, oral, repeated 7 or 9 days
Experimental: All compounds were repeatedly administered to the mice at a dose of 1 mg/kg, 10 mg/kg or 100 mg/kg (body weight) for 7 or 9 days. One day after the final administration of the compound, the whole blood was collected.
Using Sysmex XT-1800i (Sysmex Corporation), the white blood cell number, red blood cell number, and platelet number in the collected whole blood per unit volume were measured. The influence of each compound on each blood cell number was determined by calculating the number with the mean of each blood cell number of the mouse without administration of the compound (0 mg/kg group), and the mean of each blood cell number in the whole blood of a mouse with the administration of the compound.

[2] = Evaluation of hippocampal distribution in mouse; assay type: in vivo; details: male ICR mice, 10 mg/kg oral; for concentration at 1 h / concentration at 0.5 h: male, ICR, mouse, po, 10 mg/kg; for concentration at 0.5 h: 0.5 h after administration
[3] = 1 h after administration, sulfate

Cc1nnc(NC(=O)c2cc([C@@H]3C[C@H]3NC3CCC3)c(C)s2)s1 [Example 99, 4-((1S,2R)-2-(cyclobutylamino)cyclopropyl)-5-methyl-N-(5-methyl-1,3,4-thiadiazol-2-yl)thiophene-2-carboxamide hydrochloride]
Platelets, Mean ([1]; 1 mg/kg): 1442 10^3 cells | Red blood cells, Mean ([1]; 1 mg/kg): 892 10^4 cells | White blood cells, Mean ([1]; 1 mg/kg): 399 10 cells | Platelets, Mean ([1]; 10 mg/kg): 1380 10^3 cells | Red blood cells, Mean ([1]; 10 mg/kg): 915 10^4 cells | White blood cells, Mean ([1]; 10 mg/kg): 378 10 cells | Platelets, Mean ([1]; 100 mg/kg): 1519 10^3 cells | Red blood cells, Mean ([1]; 100 mg/kg): 876 10^4 cells | White blood cells, Mean ([1]; 100 mg/kg): 347 10 cells | concentration at 1 h ([2]; hippocampus, 1 h after administration, read-out: Concentration Hippocampus, Mean): 640 ng/g | concentration at 1 h ([2]; plasma, 1 h after administration, read-out: Concentration Plasma, Mean): 2950 ng/mL

Cc1nnc(NC(=O)c2cc([C@@H]3C[C@H]3NC3CCC3)cs2)s1 [Example 118, 4-((1S,2R)-2-(cyclobutylamino)cyclopropyl)-N-(5-methyl-1,3,4-thiadiazol-2-yl)thiophene-2-carboxamide sulfate]
Platelets, Mean ([1]; 1 mg/kg, sulfate): 1051 10^3 cells | Red blood cells, Mean ([1]; 1 mg/kg, sulfate): 853 10^4 cells | White blood cells, Mean ([1]; 1 mg/kg, sulfate): 299 10 cells | Platelets, Mean ([1]; 10 mg/kg, sulfate): 1158 10^3 cells | Red blood cells, Mean ([1]; 10 mg/kg, sulfate): 907 10^4 cells | White blood cells, Mean ([1]; 10 mg/kg, sulfate): 312 10 cells | Platelets, Mean ([1]; 100 mg/kg, sulfate): 1176 10^3 cells | Red blood cells, Mean ([1]; 100 mg/kg, sulfate): 881 10^4 cells | White blood cells, Mean ([1]; 100 mg/kg, sulfate): 245 10 cells | Concentration Hippocampus, Mean [2, 3]: 0.151 µg/g | Concentration Plasma, Mean [2, 3]: 405 ng/mL

Cc1sc(C(=O)Nc2cnn(C)c2)cc1[C@@H]1C[C@H]1NC1CCC1 [Example 123, 4-((1S,2R)-2-(cyclobutylamino)cyclopropyl)-5-methyl-N-(1-methyl-1H-pyrazol-4-yl)thiophene-2-carboxamide hydrochloride]
Platelets, Mean ([1]; 1 mg/kg, hydrochloride): 1086 10^3 cells | Red blood cells, Mean ([1]; 1 mg/kg, hydrochloride): 846 10^4 cells | White blood cells, Mean ([1]; 1 mg/kg, hydrochloride): 390 10 cells | Platelets, Mean ([1]; 10 mg/kg, hydrochloride): 1234 10^3 cells | Red blood cells, Mean ([1]; 10 mg/kg, hydrochloride): 854 10^4 cells | White blood cells, Mean ([1]; 10 mg/kg, hydrochloride): 368 10 cells | Platelets, Mean ([1]; 100 mg/kg): 1333 10^3 cells | Red blood cells, Mean ([1]; 100 mg/kg): 866 10^4 cells | White blood cells, Mean ([1]; 100 mg/kg): 380 10 cells | concentration at 0.5 h ([2]; hippocampus, read-out: Concentration Hippocampus, Mean): 369 ng/g | concentration at 0.5 h ([2]; plasma, read-out: Concentration Plasma, Mean): 1110 ng/mL
